Legend:
[1] = Binary mixture study: stability of rsCT with individual excipients stored at 40° C. (recovery and purity); format: physicochemical; conditions: for rsCT stability in binary mixture: 40° C.
Protocol: Binary mixtures were prepared by combining about 18 mg of rsCT with about 300 mg of each of the excipients, individually. Each binary mixture was evaluated in the presence or absence of 10% (w/w) water. Control samples included rsCT only. The mixtures were stored at 40° C., were pulled in duplicate after 7 days and 32 days, and were evaluated for recovery (assay activity relative to that of untreated and dried rsCT) and purity.

[2] = more potent than human calcitonin; cited from earlier work
[3] = Water content of rsCT and excipient powders by Karl Fischer Coulometric Titration Method 1c; format: physicochemical; conditions: for Dried Water content: powder after drying in a lyophilizer; for Untreated Water Content: powder in its untreated state
Protocol: The stability of rsCT in the binary presence of the tablet core and subcoat excipients, as well as the effect of intrinsic and extrinsic moisture on the stability of those mixtures, was thoroughly examined. Each of the components including rsCT was evaluated in its untreated state and after drying in a lyophilizer (dried). The water content of each powder was determined by Karl Fischer Coulometric Titration Method 1c prior to preparation of the binary mixtures and is presented in Table 1, below.

Row | Molecule | Average Purity (Area %) ([1]; 10% (v/w) Water Added, T = 7 days at 40° C.) | Average Purity (Area %) ([1]; 10% (v/w) Water Added, T = 32 days at 40° C.) | Average Purity (Area %) ([1]; Untreated Powders, T = 7 days at 40° C.) | Average Purity (Area %) ([1]; Untreated Powders, T = 32 days at 40° C.) | rsCT stability in binary mixture ([1]; in the presence of water and Citric Acid DC F20) | rsCT stability in binary mixture ([1]; in the presence of water and Kollicoat IR) | rsCT stability in binary mixture ([1]; in the presence of water and Prosolv HD90) | Potency relative to human calcitonin [2] | Dried Water content [3] | Untreated Water Content [3]
1 | CC(C)C[C@H](NC(=O)[C@H](CCCCN)NC(=O)CNC(=O)[C@H](CC(C)C)NC(=O)[C@@H](NC(=O)[C@@H]1CSSC[C@H](N)C(=O)N[C@@H](CO)C(=O)N[C@@H](CC(N)=O)C(=O)N[C@@H](CC(C)C)C(=O)N[C@@H](CO)C(=O)N[C@@H]([C@@H](C)O)C(=O)N1)C(C)C)C(=O)N[C@@H](CO)C(=O)N[C@@H](CCC(N)=O)C(=O)N[C@@H](CCC(=O)O)C(=O)N[C@@H](CC(C)C)C(=O)N[C@@H](Cc1c[nH]cn1)C(=O)N[C@@H](CCCCN)C(=O)N[C@@H](CC(C)C)C(=O)N[C@@H](CCC(N)=O)C(=O)N[C@H](C(=O)N[C@@H](Cc1ccc(O)cc1)C(=O)N1CCC[C@H]1C(=O)N[C@@H](CCCNC(=N)N)C(=O)N[C@H](C(=O)N[C@@H](CC(N)=O)C(=O)N[C@H](C(=O)NCC(=O)N[C@@H](CO)C(=O)NCC(=O)N[C@H](C(=O)N1CCC[C@H]1C(N)=O)[C@@H](C)O)[C@@H](C)O)[C@@H](C)O)[C@@H](C)O [rsCT, salmon calcitonin] | 98.2% Area % | 95.1% Area % | 98.9% Area % | 96.0% Area % | rapidly degraded with concomitant loss of recovery and purity | loss of rsCT activity and loss in purity | rapid loss of rsCT activity and non-concomitant loss in purity | 30-50 times | 0.90% | 8.91%
2 | Magnesium Stearate | – | – | – | – | – | – | – | – | 3.51% | 5.00%

Source: patent publication US11998640B2, “Room temperature stable oral calcitonin formulation” (PARK THERAPEUTICS, INC., priority 2016, dated 2024)
